Test results published in ChEMBL document CHEMBL4414549 (J Med Chem, 2019).

Tests used:
in vivo [1] = details: Sprague-Dawley, rat, po, 5 mg/kg
[2] = Plasma concentration in ICR mouse at 14.5 mg/kg, po administered as single dose measured at 4 hrs by LC-MS/MS analysis; assay type: ADME, organism-based
in vivo [3] = details: Sprague-Dawley, rat, po, 5 mg/kg; remark: listed apart in the source
in vivo [4] = details: Sprague-Dawley, rat, iv, 1 mg/kg
[5] = Plasma concentration in ICR mouse at 17.7 mg/kg, po administered as single dose measured at 0.5 hrs by LC-MS/MS analysis; assay type: ADME, organism-based
[6] = Plasma concentration in ICR mouse at 2.2 mg/kg, po administered as single dose measured at 0.5 hrs by LC-MS/MS analysis; assay type: ADME, organism-based
[7] = Plasma concentration in ICR mouse at 0.7 mg/kg, po administered as single dose measured at 0.5 hrs by LC-MS/MS analysis; assay type: ADME, organism-based
[8] = Plasma concentration in ICR mouse at 8.9 mg/kg, po administered as single dose measured at 0.5 hrs by LC-MS/MS analysis; assay type: ADME, organism-based
[9] = Plasma concentration in ICR mouse at 4.4 mg/kg, po administered as single dose measured at 0.5 hrs by LC-MS/MS analysis; assay type: ADME, organism-based
[10] = Plasma concentration in ICR mouse at 14.5 mg/kg, po administered as single dose measured at 2 hrs by LC-MS/MS analysis; assay type: ADME, organism-based
[11] = Plasma concentration in ICR mouse at 1.4 mg/kg, po administered as single dose measured at 0.5 hrs by LC-MS/MS analysis; assay type: ADME, organism-based
in vivo [12] = details: Sprague-Dawley, rat, po, 5 mg/kg; remark: listed apart in the source
[13] = Cmax in ICR mouse plasma at 14.5 mg/kg, po administered as single dose by LC-MS/MS analysis; assay type: ADME, organism-based; parameters: dose 14.5 mg/kg, route oral
[14] = Plasma concentration in ICR mouse at […], po administered as single dose measured at 0.5 hrs by LC-MS/MS analysis; assay type: ADME, organism-based
in vivo [15] = details: Sprague-Dawley, rat, iv, 1 mg/kg; remark: listed apart in the source
in vivo [16] = details: Sprague-Dawley, rat, po, 5 mg/kg; remark: listed apart in the source
[17] = Plasma concentration in ICR mouse at 2.9 mg/kg, po administered as single dose measured at 0.5 hrs by LC-MS/MS analysis; assay type: ADME, organism-based
[18] = Oral bioavailability in human in fed state at 560 mg administered daily; assay type: ADME, organism-based; details: in vivo
[19] = Oral bioavailability in human in fasting state at 560 mg administered daily; assay type: ADME, organism-based; details: in vivo
in vivo [20] = details: Sprague-Dawley, rat, iv, 1 mg/kg; remark: listed apart in the source

Row | SMILES | Cmax (in vivo [1]) [ng/mL] | concentration at 4 h [2] [nM] | AUC (in vivo [3]) [ng·h/mL] | clearance (in vivo [4]) [mL/min/kg] | concentration at 0.5 h [5] [nM] | concentration at 0.5 h [6] [nM] | concentration at 0.5 h [7] [nM] | concentration at 0.5 h [8] [nM] | concentration at 0.5 h [9] [nM] | concentration at 2 h [10] [nM] | concentration at 0.5 h [11] [nM] | bioavailability (in vivo [12]) [%] | Cmax [13] [nM] | concentration at 0.5 h [14] [nM] | Vd (in vivo [15]) [L/kg] | Tmax (in vivo [16]) [min] | concentration at 0.5 h [17] [nM] | bioavailability [18] [%] | bioavailability [19] [%] | half-life (in vivo [20]) [min]
1 | C=CC(=O)N1CCC([C@@H]2CCNc3c(C(N)=O)c(-c4ccc(Oc5ccccc5)cc4)nn32)CC1 [ZANUBRUTINIB] | 235 | 90 | 257 | 76.8 | 500 | 70 | 40 | 350 | 180 | 470 | 110 | 23.6 | 4800 | 590 | 2.32 | 19.8 | 320 | – | – | –
2 | C=CC(=O)N1CCC[C@@H](n2nc(-c3ccc(Oc4ccccc4)cc3)c3c(N)ncnc32)C1 [IBRUTINIB] | – | – | – | – | – | – | – | – | – | – | – | – | – | – | – | – | – | 8.4 | 3.9 | –
3 | C=CC(=O)N1CC(C2CCNc3c(C(N)=O)c(-c4ccc(Oc5ccccc5)cc4)nn32)C1 (stereo not given) | 10.4 | – | 50.3 | 169 | – | – | – | – | – | – | – | 8.6 | – | – | 2.85 | 140 | – | – | – | 15.6
4 | C=CC(=O)Nc1ccccc1C1CCNc2c(C(N)=O)c(-c3ccc(OCC4CC4)cc3)nn21 (stereo not given) | 202 | – | 344 | 82.3 | – | – | – | – | – | – | – | 34 | – | – | 1.01 | 19.8 | – | – | – | 24
5 | C=CC(=O)NCC1CCNc2c(C(N)=O)c(-c3ccc(Oc4ccccc4)cc3)nn21 (stereo not given) | 19.6 | – | 51.1 | 93.9 | – | – | – | – | – | – | – | 5.7 | – | – | 1.19 | 19.8 | – | – | – | 12.6
